Test results taken from patent publication US20230278972A1, “SUBSTITUTED HALOALKYL SULFONANILIDE HERBICIDES” (FMC Corporation, priority 2020, published 2023).
Where two headings read alike, the source gives them in different places.

Tests used:
[1] = system: Ryegrass, Italian (Italian ryegrass, Lolium multiflorum); experiment: Test A postemergence, Ryegrass, Italian; assay type: in vivo; settings: Lolium multiflorum, post-emergence, 240 h, Postemergence, 0 to 100 scale (0 no effect, 100 complete control); for pest or weed control at 125 g/ha: 125 g ai/ha; for pest or weed control at 500 g/ha: 500 g ai/ha
Summary of the method: (§1)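 Directed soil spray at planting gave the preemergence treatment, while foliar application to one- to two-leaf seedlings (2–10 cm) gave the postemergence one; pots held a loam and sand mixture and chemicals were carried in a non-phytotoxic solvent with surfactant.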

[2] = system: Foxtail, Giant (giant foxtail, Setaria faberi); experiment: Test A postemergence, Foxtail, Giant; assay type: in vivo; settings: Setaria faberi, post-emergence, 240 h, Postemergence, 0 to 100 scale (0 no effect, 100 complete control); for pest or weed control at 125 g/ha: 125 g ai/ha; for pest or weed control at 500 g/ha: 500 g ai/ha
Summary of the method: as §1

corn (Zea mays) = experiment: Test A postemergence, corn; assay type: in vivo; settings: Zea mays, post-emergence, 240 h, Postemergence, 0 to 100 scale (0 no effect, 100 complete control); for Corn plant response rating (crop injury, 0 = no effect, 100 = complete kill) at 125 g/ha: 125 g ai/ha; for plant injury at 500 g/ha / Corn plant response rating (crop injury, 0 = no effect, 100 = complete kill) at 500 g/ha: 500 g ai/ha; for plant injury at 500 g/ha: visual injury vs untreated controls after approx. 10 days, read-out: Corn plant response rating
Summary of the method: as §1

[3] = system: ducksalad (Heteranthera limosa); experiment: Test B flooded paddy test, ducksalad; settings: 336 h, read-out: Plant response rating, Ducksalad
[4] = visual injury approx. 10 days, read-out: Plant response rating, Ryegrass, Italian
[5] = visual injury vs untreated controls after approx. 10 days, read-out: Ryegrass, Italian plant response rating
[6] = visual injury approx. 10 days, read-out: Plant response rating, Foxtail, Giant
[7] = visual injury vs untreated controls after approx. 10 days, read-out: Foxtail, Giant plant response rating
[8] = visual injury, approx. 10 days, read-out: Plant response rating, Ryegrass, Italian
[9] = visual injury, approx. 10 days, read-out: Plant response rating, Foxtail, Giant
[10] = read-out: Plant response rating, Ryegrass, Italian
[11] = read-out: Plant response rating, Foxtail, Giant

Row | Compound | pest or weed control at 125 g/ha [1, 4] [%] | pest or weed control at 500 g/ha [1, 5] [%] | pest or weed control at 125 g/ha [2, 6] [%] | pest or weed control at 500 g/ha [2, 7] [%] | Corn plant response rating (crop injury, 0 = no effect, 100 = complete kill) at 125 g/ha (corn (Zea mays); visual injury approx. 10 days) [%] | plant injury at 500 g/ha (corn (Zea mays)) [%] | pest or weed control at 250 g/ha [3] [%] | pest or weed control at 500 g/ha [1, 8] [%] | pest or weed control at 500 g/ha [2, 9] [%] | Corn plant response rating (crop injury, 0 = no effect, 100 = complete kill) at 500 g/ha (corn (Zea mays); visual injury, approx. 10 days) [%] | pest or weed control at 125 g/ha [1, 10] [%] | pest or weed control at 125 g/ha [2, 11] [%] | Corn plant response rating (crop injury, 0 = no effect, 100 = complete kill) at 125 g/ha (corn (Zea mays)) [%] | pest or weed control at 500 g/ha [1, 4] [%] | pest or weed control at 500 g/ha [2, 6] [%] | Corn plant response rating (crop injury, 0 = no effect, 100 = complete kill) at 500 g/ha (corn (Zea mays); visual injury approx. 10 days) [%]
1 | Cc1cc(C)c(C2=NOC3CCOCC23)cc1NS(=O)(=O)C(F)(F)F (stereo not drawn) [Compound 120, N-[2,4-Dimethyl-5-(3a,6,7,7a-tetrahydro-4H-pyrano[3,4-d]isoxazol-3-yl)phenyl]-1,1,1-trifluoromethanesulfonamide] | 90 | 80 | 40 | 90 | 0 | 70 | 55 |  |  |  |  |  |  |  |  | 
2 | Cc1cc(C)c(C2=NO[C@@H]3CCC[C@H]23)cc1NS(=O)(=O)C(F)(F)F [Compound 103, N-[2,4-Dimethyl-5-[(3aR,6aR)-3a,5,6,6a-tetrahydro-4H-cyclopent[d]isoxazol-3-yl]phenyl]-1,1,1-trifluoromethanesulfonamide] | 90 | 90 | 30 | 70 | 20 | 70 | 80 |  |  |  |  |  |  |  |  | 
3 | Cc1cc(C)c(N(COC(=O)C(C)(C)C)S(=O)(=O)C(F)(F)F)cc1C1=NO[C@@H]2CCC[C@H]12 [Compound 100, [[2,4-Dimethyl-5-[(3aR,6aR)-3a,5,6,6a-tetrahydro-4H-cyclopent[d]isoxazol-3-yl]phenyl][(trifluoromethyl)sulfonyl]amino]methyl 2,2-dimethylpropanoate] | 20 | 40 | 10 | 40 | 10 | 30 | 70 |  |  |  |  |  |  |  |  | 
4 | Cc1cc(Cl)c(NS(=O)(=O)C(F)(F)F)cc1C(=O)N1CCOCC1 [Compound 16, N-[2-Chloro-4-methyl-5-(4-morpholinylcarbonyl)phenyl]-1,1,1-trifluoromethanesulfonamide] | 50 |  | 40 |  | 0 |  | 40 | 70 | 90 | 50 |  |  |  |  |  | 
5 | Cc1cc(Cl)c(NS(=O)(=O)C(F)(F)F)cc1C(=O)N1CCC(F)(F)CC1 [Compound 229, N-[2-Chloro-5-[(4,4-difluoro-1-piperidinyl)carbonyl]-4-methylphenyl]-1,1,1-trifluoromethanesulfonamide] |  | 70 |  | 90 |  | 70 | 75 |  |  |  | 30 | 50 | 20 |  |  | 
6 | Cc1cc(C)c(C2=NOC3(CCCC3)C2)cc1NS(=O)(=O)C(F)(F)F [Compound 207, N-[2,4-Dimethyl-5-(1-oxa-2-azaspiro[4.4]non-2-en-3-yl)phenyl]-1,1,1-trifluoromethanesulfonamide] |  | 90 |  | 90 |  | 70 | 95 |  |  |  | 40 | 50 | 20 |  |  | 
7 | Cc1c(NS(=O)(=O)C(F)(F)F)cc(C(=O)N(C)C)c(C)c1F [Compound 128, 3-Fluoro-N,N,2,4-tetramethyl-5-[[(trifluoromethyl)sulfonyl]amino]benzamide] | 80 | 100 | 10 | 50 | 10 | 60 | 50 |  |  |  |  |  |  |  |  | 
8 | Cc1cc(C)c(N(COC(=O)C(C)(C)C)S(=O)(=O)C(F)(F)F)cc1C1=NOC2(CCCC2)C1 [Compound 140, [[2,4-Dimethyl-5-(1-oxa-2-azaspiro[4.4]non-2-en-3-yl)phenyl][(trifluoromethyl)sulfonyl]amino]methyl 2,2-dimethylpropanoate] |  | 20 | 30 | 90 | 0 | 30 | 85 |  |  |  | 0 |  |  |  |  | 
9 | CCc1cc(-c2cc(NS(=O)(=O)C(F)(F)F)c(C)cc2C)c(=O)n(C)n1 [Compound 34, N-[5-(6-Ethyl-2,3-dihydro-2-methyl-3-oxo-4-pyridazinyl)-2,4-dimethylphenyl]-1,1,1-trifluoromethanesulfonamide] | 0 |  | 0 |  | 0 |  | 0 | 0 | 0 | 0 |  |  |  |  |  | 
10 | Cc1cc(C)c(C2=NOC3COCCC23)cc1NS(=O)(=O)C(F)(F)F (stereo not drawn) [Compound 121, N-[2,4-Dimethyl-5-(3a,4,7,7a-tetrahydro-5H-pyrano[4,3-d]isoxazol-3-yl)phenyl]-1,1,1-trifluoromethanesulfonamide] | 90 | 80 | 50 | 90 | 50 | 80 | 75 |  |  |  |  |  |  |  |  | 
11 | Cc1cc(Cl)c(NS(=O)(=O)C(F)(F)F)cc1C(=O)N1CCCCC1 [Compound 18, N-[2-Chloro-4-methyl-5-(1-piperidinylcarbonyl)phenyl]-1,1,1-trifluoromethanesulfonamide] | 10 |  | 20 |  | 0 |  | 0 | 40 | 70 | 0 |  |  |  |  |  | 
12 | Cc1cc(C)c(C2=NOC3(CCCCC3)C2)cc1NS(=O)(=O)C(F)(F)F [Compound 197, N-[2,4-Dimethyl-5-(1-oxa-2-azaspiro[4.5]dec-2-en-3-yl)phenyl]-1,1,1-trifluoromethanesulfonamide] |  | 60 |  | 90 |  | 80 | 95 |  |  |  | 50 | 80 | 20 |  |  | 
13 | Cc1c(NS(=O)(=O)C(F)(F)F)cc(C(=O)N2CCOCC2)c(C)c1F [Compound 190, 1,1,1-Trifluoro-N-[3-fluoro-2,4-dimethyl-5-(4-morpholinylcarbonyl)phenyl]methanesulfonamide] |  | 90 |  | 80 |  | 30 | 75 |  |  |  | 80 | 20 | 0 |  |  | 
14 | Cc1cc(C)c(N(COC(=O)C(C)(C)C)S(=O)(=O)C(F)(F)F)cc1C1=NOC2(CCCCC2)C1 [Compound 159, [[2,4-Dimethyl-5-(1-oxa-2-azaspiro[4.5]dec-2-en-3-yl)phenyl][(trifluoromethyl)sulfonyl]amino]methyl 2,2-dimethylpropanoate] |  | 0 |  | 30 |  | 30 | 35 |  |  |  | 0 | 0 | 0 |  |  | 
15 | Cc1cc(C)c(C(=O)N2CCC(F)(F)CC2)cc1NS(=O)(=O)C(F)(F)F [Compound 241, N-[5-[(4,4-Difluoro-1-piperidinyl)carbonyl]-2,4-dimethylphenyl]-1,1,1-trifluoromethanesulfonamide] |  |  |  |  |  |  | 85 |  |  |  | 0 | 0 | 10 | 70 | 30 | 20
